Reference: patent publication US9884832B2 (priority 2011, dated 2018)
Read-outs that look alike come from different tables or passages of the source.

Columns and labels:
[1] = molecular target: AM2 S31N (serine→asparagine mutation at residue 31 in the M2 protein) (Influenza A virus, UniProt P0DOF5, S31N); format: cell-based, influenza virus A/Udorn/72
[2] = molecular target: AM2 V27A (valine→alanine mutation at residue 27 in the M2 protein) (Influenza A virus, UniProt P0DOF5, V27A); format: cell-based, influenza virus A/Udorn/72

Oc1ccc(CNC2C3CC4CC(C3)CC2C4)c(O)c1 (centres unmarked) [Example 100, 4-(Adamantan-2-ylaminomethyl)-benzene-1,3-diol]
S31N OOcyte Inhibition at 100 uM (%) ([1]; pH 5.5): B (key: (A)=31-95%; (B)=0-30%)
V27A OOcyte Inhibition at 100 uM (%) ([2]; pH 5.5): A (key: (A)=31-95%; (B)=0-30%)

O=[N+]([O-])c1ccc(CNC23CC4CC(CC(C4)C2)C3)s1 [Example 100a, N-((5-nitrothiophen-2-yl)methyl)adamantan-1-amine]
S31N OOcyte Inhibition at 100 uM (%) [1]: B (key: (A)=31-95%; (B)=0-30%)
V27A OOcyte Inhibition at 100 uM (%) [2]: A (key: (A)=31-95%; (B)=0-30%)

Oc1ccc(CNC2C3CC4CC(C3)CC2C4)cc1O (centres unmarked) [Example 101, 4-(Adamantan-2-ylaminomethyl)-benzene-1,2-diol]
S31N OOcyte Inhibition at 100 uM (%) ([1]; pH 5.5): B (key: (A)=31-95%; (B)=0-30%)
V27A OOcyte Inhibition at 100 uM (%) ([2]; pH 5.5): B (key: (A)=31-95%; (B)=0-30%)

CC(C)(C)c1cc(CNC23CC4CC(CC(C4)C2)C3)[nH]n1 [Example 101a, N-((3-(tert-butyl)-1H-pyrazol-5-yl)methyl)adamantan-1-amine]
S31N OOcyte Inhibition at 100 uM (%) [1]: B (key: (A)=31-95%; (B)=0-30%)
V27A OOcyte Inhibition at 100 uM (%) [2]: B (key: (A)=31-95%; (B)=0-30%)

CC(NC1C2CC3CC(C2)CC1C3)c1ccc(O)cc1O (centres unmarked) [Example 102, 4-[1-(Adamantan-2-ylamino)-ethyl]-benzene-1,3-diol]
S31N OOcyte Inhibition at 100 uM (%) ([1]; pH 5.5): B (key: (A)=31-95%; (B)=0-30%)
V27A OOcyte Inhibition at 100 uM (%) ([2]; pH 5.5): A (key: (A)=31-95%; (B)=0-30%)

CSc1ccc(CNC2C3CC4CC(C3)CC2C4)cc1 (centres unmarked) [Example 103, Adamantan-2-yl-(4-methylsulfanyl-benzyl)-amine]
S31N OOcyte Inhibition at 100 uM (%) ([1]; pH 5.5): A (key: (A)=31-95%; (B)=0-30%)
V27A OOcyte Inhibition at 100 uM (%) ([2]; pH 5.5): A (key: (A)=31-95%; (B)=0-30%)

OC1CCN(C2C3CC4CC(C3)CC2C4)CC1 (centres unmarked) [Example 104, 1-Adamantan-2-yl-piperidin-4-ol]
S31N OOcyte Inhibition at 100 uM (%) ([1]; pH 5.5): B (key: (A)=31-95%; (B)=0-30%)
V27A OOcyte Inhibition at 100 uM (%) ([2]; pH 5.5): B (key: (A)=31-95%; (B)=0-30%)

c1c(CNC2C3CC4CC(C3)CC2C4)nc2n1CCS2 (centres unmarked) [Example 105, Adamantan-2-yl-(2,3-dihydro-imidazo[2,1-b]thiazol-6-ylmethyl)-amine]
S31N OOcyte Inhibition at 100 uM (%) ([1]; pH 5.5): B (key: (A)=31-95%; (B)=0-30%)
V27A OOcyte Inhibition at 100 uM (%) ([2]; pH 5.5): B (key: (A)=31-95%; (B)=0-30%)

Cc1nn2cc(CNC3C4CC5CC(C4)CC3C5)nc2s1 (centres unmarked) [Example 106, Adamantan-2-yl-(2-methyl-imidazo[2,1-b][1,3,4]thiadiazol-6-ylmethyl)-amine]
S31N OOcyte Inhibition at 100 uM (%) ([1]; pH 5.5): B (key: (A)=31-95%; (B)=0-30%)
V27A OOcyte Inhibition at 100 uM (%) ([2]; pH 5.5): A (key: (A)=31-95%; (B)=0-30%)

c1cn2cc(CNC3C4CC5CC(C4)CC3C5)nc2s1 (centres unmarked) [Example 107, Adamantan-2-yl-imidazo[2,1-b]thiazol-6-ylmethyl-amine]
S31N OOcyte Inhibition at 100 uM (%) ([1]; pH 5.5): B (key: (A)=31-95%; (B)=0-30%)
V27A OOcyte Inhibition at 100 uM (%) ([2]; pH 5.5): B (key: (A)=31-95%; (B)=0-30%)

CC1(C)CCC(NCc2ccc(O)cc2O)CC1 [Example 108, 4-[(4,4-Dimethyl-cyclohexylamino)-methyl]-benzene-1,3-diol]
S31N OOcyte Inhibition at 100 uM (%) ([1]; pH 5.5): B (key: (A)=31-95%; (B)=0-30%)
V27A OOcyte Inhibition at 100 uM (%) ([2]; pH 5.5): B (key: (A)=31-95%; (B)=0-30%)

CC(C)(C)C1CCC(NCc2ccc(O)cc2O)CC1 (centres unmarked) [Example 109, 4-[(4-tert-Butyl-cyclohexylamino)-methyl]-benzene-1,3-diol]
S31N OOcyte Inhibition at 100 uM (%) ([1]; pH 5.5): B (key: (A)=31-95%; (B)=0-30%)
V27A OOcyte Inhibition at 100 uM (%) ([2]; pH 5.5): A (key: (A)=31-95%; (B)=0-30%)

Oc1ccc(CNC23CC4CCC(CC(C4)C2)C3)c(O)c1 [Example 110, 4-(Tricyclo[4.3.1.13,8]undec-1-ylaminomethyl)-benzene-1,3-diol]
S31N OOcyte Inhibition at 100 uM (%) ([1]; pH 5.5): A (key: (A)=31-95%; (B)=0-30%)
V27A OOcyte Inhibition at 100 uM (%) ([2]; pH 5.5): A (key: (A)=31-95%; (B)=0-30%)

COc1ccc(-c2cc(CNC34CC5CC(CC(C5)C3)C4)no2)cc1 [Example 110a, N-((5-(4-methoxyphenyl)isoxazol-3-yl)methyl)adamantan-1-amine]
S31N OOcyte Inhibition at 100 uM (%) [1]: A (key: (A)=31-95%; (B)=0-30%)
V27A OOcyte Inhibition at 100 uM (%) [2]: B (key: (A)=31-95%; (B)=0-30%)

Oc1ccc(CNC23CC4CC(CC2C4)C3)c(O)c1 [Example 111, 4-[(Hexahydro-2,5-methano-pentalen-3a-ylamino)-methyl]-benzene-1,3-diol]
S31N OOcyte Inhibition at 100 uM (%) ([1]; pH 5.5): A (key: (A)=31-95%; (B)=0-30%)
V27A OOcyte Inhibition at 100 uM (%) ([2]; pH 5.5): B (key: (A)=31-95%; (B)=0-30%)

CC(C)(C)CC(C)(C)NCc1ccc(O)cc1O [Example 112, 4-[(1,1,3,3-Tetramethyl-butylamino)-methyl]-benzene-1,3-diol]
S31N OOcyte Inhibition at 100 uM (%) ([1]; pH 5.5): B (key: (A)=31-95%; (B)=0-30%)
V27A OOcyte Inhibition at 100 uM (%) ([2]; pH 5.5): A (key: (A)=31-95%; (B)=0-30%)

CSc1ccc(-c2ccc(CNC34CC5CC(CC(C5)C3)C4)s2)cc1 [Example 112a, N-((5-(4-(methylthio)phenyl)thiophen-2-yl)methyl)adamantan-1-amine]
S31N OOcyte Inhibition at 100 uM (%) [1]: A (key: (A)=31-95%; (B)=0-30%)
V27A OOcyte Inhibition at 100 uM (%) [2]: B (key: (A)=31-95%; (B)=0-30%)

C[Si](C)(C)CCCNCc1ccc(O)cc1O [Example 113, 4-[(3-Trimethylsilanyl-propylamino)-methyl]-benzene-1,3-diol]
S31N OOcyte Inhibition at 100 uM (%) ([1]; pH 5.5): B (key: (A)=31-95%; (B)=0-30%)
V27A OOcyte Inhibition at 100 uM (%) ([2]; pH 5.5): B (key: (A)=31-95%; (B)=0-30%)

COc1ccc(-c2ccc(CNC34CC5CC(CC(C5)C3)C4)s2)cc1 [Example 113a, N-((5-(4-methoxyphenyl)thiophen-2-yl)methyl)adamantan-1-amine]
S31N OOcyte Inhibition at 100 uM (%) [1]: A (key: (A)=31-95%; (B)=0-30%)
V27A OOcyte Inhibition at 100 uM (%) [2]: B (key: (A)=31-95%; (B)=0-30%)

CC1(C)C2CCC(CNCc3ccc(O)cc3O)C1C2 (centres unmarked) [Example 114, 4-{[(6,6-Dimethyl-bicyclo[3.1.1]hept-2-ylmethyl)-amino]methyl}-benzene-1,3-diol]
S31N OOcyte Inhibition at 100 uM (%) ([1]; pH 5.5): B (key: (A)=31-95%; (B)=0-30%)
V27A OOcyte Inhibition at 100 uM (%) ([2]; pH 5.5): B (key: (A)=31-95%; (B)=0-30%)

Oc1ccc(CN2CCC3(CCCCC3)CC2)c(O)c1 [Example 115, 4-(3-Aza-spiro[5.5]undec-3-ylmethyl)-benzene-1,3-diol]
S31N OOcyte Inhibition at 100 uM (%) ([1]; pH 5.5): B (key: (A)=31-95%; (B)=0-30%)
V27A OOcyte Inhibition at 100 uM (%) ([2]; pH 5.5): B (key: (A)=31-95%; (B)=0-30%)

c1ccc(-c2nnc(CNC34CC5CC(CC(C5)C3)C4)o2)cc1 [Example 115a, N-((5-phenyl-1,3,4-oxadiazol-2-yl)methyl)adamantan-1-amine]
S31N OOcyte Inhibition at 100 uM (%) [1]: A (key: (A)=31-95%; (B)=0-30%)
V27A OOcyte Inhibition at 100 uM (%) [2]: B (key: (A)=31-95%; (B)=0-30%)

Oc1ccc(CN2CC3CC4CC(C3)CC2C4)c(O)c1 [Example 116, 4-(4-Aza-tricyclo[4.3.1.13,8]undec-4-ylmethyl)-benzene-1,3-diol]
S31N OOcyte Inhibition at 100 uM (%) ([1]; pH 5.5): B (key: (A)=31-95%; (B)=0-30%)
V27A OOcyte Inhibition at 100 uM (%) ([2]; pH 5.5): A (key: (A)=31-95%; (B)=0-30%)

c1ccc(-c2cc(CNC34CC5CC(CC(C5)C3)C4)no2)cc1 [Example 116a, N-((5-phenylisoxazol-3-yl)methyl)adamantan-1-amine]
S31N OOcyte Inhibition at 100 uM (%) [1]: A (key: (A)=31-95%; (B)=0-30%)
V27A OOcyte Inhibition at 100 uM (%) [2]: B (key: (A)=31-95%; (B)=0-30%)

COc1ccc(-c2nnc(CNC34CC5CC(CC(C5)C3)C4)o2)cc1 [Example 127a, N-((5-(4-methoxyphenyl)-1,3,4-oxadiazol-2-yl)methyl)adamantan-1-amine]
S31N OOcyte Inhibition at 100 uM (%) [1]: A (key: (A)=31-95%; (B)=0-30%)
V27A OOcyte Inhibition at 100 uM (%) [2]: B (key: (A)=31-95%; (B)=0-30%)

c1coc(-c2ccc(CNC34CC5CC(CC(C5)C3)C4)s2)c1 [Example 136a, N-((5-(Furan-2-yl)thiophen-2-yl)methyl)adamantan-1-amine]
S31N OOcyte Inhibition at 100 uM (%) [1]: A (key: (A)=31-95%; (B)=0-30%)
V27A OOcyte Inhibition at 100 uM (%) [2]: B (key: (A)=31-95%; (B)=0-30%)

c1cc(-c2ccc(CNC34CC5CC(CC(C5)C3)C4)s2)co1 [Example 137a, N-((5-(Furan-3-yl)thiophen-2-yl)methyl)adamantan-1-amine]
S31N OOcyte Inhibition at 100 uM (%) [1]: A (key: (A)=31-95%; (B)=0-30%)
V27A OOcyte Inhibition at 100 uM (%) [2]: B (key: (A)=31-95%; (B)=0-30%)

c1csc(-c2csc(CNC34CC5CC(CC(C5)C3)C4)c2)c1 [Example 140a, Adamantan-1-yl-[2,3′]bithiophenyl-5′-ylmethyl-amine]
S31N OOcyte Inhibition at 100 uM (%) [1]: A (key: (A)=31-95%; (B)=0-30%)
V27A OOcyte Inhibition at 100 uM (%) [2]: A (key: (A)=31-95%; (B)=0-30%)

Cc1ccc(-c2ccc(CNC34CC5CC(CC(C5)C3)C4)s2)s1 [Example 141a, N-((5′-methyl-[2,2′-bithiophen]-5-yl)methyl)adamantan-1-amine]
S31N OOcyte Inhibition at 100 uM (%) [1]: A (key: (A)=31-95%; (B)=0-30%)
V27A OOcyte Inhibition at 100 uM (%) [2]: B (key: (A)=31-95%; (B)=0-30%)

c1csc(-c2cc(CNC34CC5CC(CC(C5)C3)C4)no2)c1 [Example 142a, N-((5-(thiophen-2-yl)isoxazol-3-yl)methyl)adamantan-1-amine]
S31N OOcyte Inhibition at 100 uM (%) [1]: A (key: (A)=31-95%; (B)=0-30%)
V27A OOcyte Inhibition at 100 uM (%) [2]: B (key: (A)=31-95%; (B)=0-30%)

c1cc(-c2nc(CNC34CC5CC(CC(C5)C3)C4)no2)cs1 [Example 143a, N-((5-(thiophen-3-yl)-1,2,4-oxadiazol-3-yl)methyl)adamantan-1-amine]
S31N OOcyte Inhibition at 100 uM (%) [1]: A (key: (A)=31-95%; (B)=0-30%)
V27A OOcyte Inhibition at 100 uM (%) [2]: B (key: (A)=31-95%; (B)=0-30%)
